Assay results: ChEMBL document CHEMBL1201862, “PubChem BioAssay data set” (2004)
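Where inhibition never reached the appropriate level, the endpoint shown equals the highest concentration tested. Otherwise, values were interpolated linearly from a five-concentration, 48-hour dose response in 96-well plates. Abbreviation: GI50, concentration required for 50% inhibition of growth.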 The source made the active and inactive calls. No stated cut-off is given here; in the data, active = GI50 up to about 1.1 µM and inactive = higher.

What was measured:
Assay in all cases: inhibition of tumour cell growth, NCI panel, 48 h
[1] = tested on: OVCAR-5
[2] = tested on: MDA-N
[3] = tested on: EKVX
[4] = tested on: Malme-3M
[5] = tested on: DU-145
[6] = tested on: OVCAR-3
[7] = tested on: NCI-H460
[8] = tested on: TK-10
[9] = tested on: SNB-75
[10] = tested on: SF-295
[11] = tested on: SN12C
[12] = tested on: NCI-H522
[13] = tested on: Hs-578T
[14] = tested on: SR
[15] = tested on: M14
[16] = tested on: SK-MEL-5
[17] = tested on: MDA-MB-231
[18] = tested on: SK-OV-3
[19] = tested on: HT-29
[20] = tested on: SK-MEL-2
[21] = tested on: HL-60
[22] = tested on: PC-3
[23] = tested on: T47D
[24] = tested on: CCRF-CEM
[25] = tested on: MOLT-4
[26] = tested on: RPMI-8226
[27] = tested on: CAKI-1
[28] = tested on: K562
[29] = tested on: LOX IMVI
[30] = tested on: MDA-MB-435
[31] = tested on: RXF 393
[32] = tested on: U-251
[33] = tested on: NCI-H226
[34] = tested on: MCF7
[35] = tested on: COLO 205
[36] = tested on: SK-MEL-28
[37] = tested on: UACC-257
[38] = tested on: NCI-H23
[39] = tested on: HCC 2998
[40] = tested on: HOP-62
[41] = tested on: OVCAR-8
[42] = tested on: KM12
[43] = tested on: SW-620
[44] = tested on: 786-0
[45] = tested on: ACHN
[46] = tested on: SF-539
[47] = tested on: HCT-15
[48] = tested on: OVCAR-4
[49] = tested on: A498
[50] = tested on: NCI/ADR-RES
[51] = tested on: UO-31
[52] = tested on: SF-268
[53] = tested on: IGROV-1
[54] = tested on: HCT-116
[55] = tested on: BT-549
[56] = tested on: HOP-92
[57] = tested on: A549
[58] = tested on: SNB-19
[59] = tested on: UACC-62

In the case of `COc1ccccc1N/C(=C\C(=O)C(=O)NC12CC3CC(CC(C3)C1)C2)c1ccccc1`, the GI50 [1] is reported as > 10 µM (inactive), the GI50 [2] is reported as > 10 µM (inactive) and the GI50 [3] is reported as > 10 µM (inactive). For the same molecule, the GI50 [4] was 3.36 µM (inactive), the GI50 [5] was > 10 µM (inactive) and the GI50 [6] was 5.31 µM (inactive). For the same molecule, the GI50 [7] was > 10 µM (inactive), the GI50 [8] was > 10 µM (inactive) and the GI50 [9] was > 10 µM (inactive). The GI50 [10] was > 10 µM (inactive), the GI50 [11] was > 10 µM (inactive) and the GI50 [12] was > 10 µM (inactive). For the same molecule, the GI50 [13] was > 10 µM (inactive), the GI50 [14] was > 10 µM (inactive) and the GI50 [15] was > 10 µM (inactive). For the same molecule, the GI50 [16] was > 10 µM (inactive), the GI50 [17] was > 10 µM (inactive) and the GI50 [18] was > 10 µM (inactive). The GI50 [19] was > 10 µM (inactive), the GI50 [20] was > 10 µM (inactive) and the GI50 [21] was > 10 µM (inactive). For the same molecule, the GI50 [22] was 7.55 µM (inactive), the GI50 [23] was > 10 µM (inactive) and the GI50 [24] was > 10 µM (inactive). For the same molecule, the GI50 [25] was > 10 µM (inactive), the GI50 [26] was > 10 µM (inactive) and the GI50 [27] was > 10 µM (inactive). The GI50 [28] was > 10 µM (inactive), the GI50 [29] was > 10 µM (inactive) and the GI50 [30] was 7.21 µM (inactive). For the same molecule, the GI50 [31] was > 10 µM (inactive), the GI50 [32] was > 10 µM (inactive) and the GI50 [33] was > 10 µM (inactive). The GI50 [34] was > 10 µM (inactive), the GI50 [35] was > 10 µM (inactive) and the GI50 [36] was > 10 µM (inactive). For the same molecule, the GI50 [37] was 9.46 µM (inactive), the GI50 [38] was > 10 µM (inactive) and the GI50 [39] was > 10 µM (inactive). The GI50 [40] was > 10 µM (inactive), the GI50 [41] was > 10 µM (inactive) and the GI50 [42] was > 10 µM (inactive). The GI50 [43] was > 10 µM (inactive), the GI50 [44] was > 10 µM (inactive) and the GI50 [45] was > 10 µM (inactive). For the same molecule, the GI50 [46] was > 10 µM (inactive), the GI50 [47] was > 10 µM and the GI50 [48] was 9.82 µM (inactive). For the same molecule, the GI50 [49] was > 10 µM (inactive), the GI50 [50] was > 10 µM (inactive) and the GI50 [51] was 7.73 µM (inactive). For the same molecule, the GI50 [52] was > 10 µM (inactive) and the GI50 [53] was > 10 µM (inactive).
With `CN(C)C(=O)C(F)(F)C(c1ccc(F)cc1)C1C(=O)N(C)C(=O)N(C)C1=O` (stereo unspecified) the GI50 [1] was > 100 µM (inactive), the GI50 [3] was > 100 µM (inactive) and the GI50 [5] was > 100 µM (inactive). The GI50 [6] was > 100 µM (inactive), the GI50 [7] was > 100 µM (inactive) and the GI50 [8] was > 100 µM (inactive). For the same molecule, the GI50 [9] was > 100 µM (inactive), the GI50 [10] was > 100 µM (inactive) and the GI50 [54] was > 100 µM (inactive). The GI50 [55] was > 100 µM (inactive), the GI50 [56] was > 100 µM (inactive) and the GI50 [15] was > 100 µM (inactive). For the same molecule, the GI50 [16] was > 100 µM (inactive), the GI50 [17] was > 100 µM (inactive) and the GI50 [18] was > 100 µM (inactive). The GI50 [20] was > 100 µM (inactive), the GI50 [22] was > 100 µM (inactive) and the GI50 [23] was > 100 µM (inactive). The GI50 [24] was > 100 µM (inactive), the GI50 [25] was > 100 µM (inactive) and the GI50 [26] was > 100 µM (inactive). For the same molecule, the GI50 [27] was > 100 µM (inactive), the GI50 [29] was > 100 µM (inactive) and the GI50 [57] was > 100 µM (inactive). The GI50 [30] was > 100 µM (inactive), the GI50 [58] was > 100 µM (inactive) and the GI50 [31] was > 100 µM (inactive). For the same molecule, the GI50 [32] was > 100 µM (inactive), the GI50 [33] was > 100 µM (inactive) and the GI50 [34] was > 100 µM (inactive). The GI50 [35] was > 100 µM (inactive), the GI50 [36] was > 100 µM (inactive) and the GI50 [37] was > 100 µM (inactive). For the same molecule, the GI50 [38] was > 100 µM (inactive), the GI50 [39] was > 100 µM (inactive) and the GI50 [40] was > 100 µM (inactive). For the same molecule, the GI50 [41] was > 100 µM (inactive), the GI50 [42] was > 100 µM (inactive) and the GI50 [59] was > 100 µM (inactive). The GI50 [43] was > 100 µM (inactive), the GI50 [44] was > 100 µM (inactive) and the GI50 [45] was > 100 µM (inactive). The GI50 [47] was > 100 µM, the GI50 [48] was > 100 µM (inactive) and the GI50 [49] was > 100 µM (inactive). For the same molecule, the GI50 [50] was > 100 µM (inactive), the GI50 [51] was > 100 µM (inactive) and the GI50 [52] was > 100 µM (inactive).
